What was measured:
[1] = molecular target: T1, Flavobacterium johnsoniae tyrosine ammonia lyase (TAL), SEQ ID NO: 6 (Flavobacterium johnsoniae, UniProt A5FKY3); assay: SFP characterization assay for kinetic parameters on tyrosine (Michaelis-Menten fit, absorbance at 290 nm); type: biochemical; settings: 0-2.48 mM tyrosine, 200 mM sodium phosphate, pH 7.0, A290
T1 sequence (A5FKY3 1-506): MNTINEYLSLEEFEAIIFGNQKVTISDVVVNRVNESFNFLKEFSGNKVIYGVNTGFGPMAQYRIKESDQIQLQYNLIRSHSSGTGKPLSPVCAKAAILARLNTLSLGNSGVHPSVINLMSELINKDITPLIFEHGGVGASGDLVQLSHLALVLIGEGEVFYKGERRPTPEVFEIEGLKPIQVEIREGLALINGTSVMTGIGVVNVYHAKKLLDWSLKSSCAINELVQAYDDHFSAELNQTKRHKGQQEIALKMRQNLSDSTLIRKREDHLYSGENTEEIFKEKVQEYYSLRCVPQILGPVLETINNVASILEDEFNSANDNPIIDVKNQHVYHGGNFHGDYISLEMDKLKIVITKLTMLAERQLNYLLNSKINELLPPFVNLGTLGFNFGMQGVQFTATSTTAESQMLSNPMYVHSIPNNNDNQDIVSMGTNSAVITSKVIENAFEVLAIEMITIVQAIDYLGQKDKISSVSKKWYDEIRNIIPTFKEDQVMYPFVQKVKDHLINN
Source text: (§1) Polynucleotide sequences encoding phenylalanine and tyrosine ammonia lyases from Stanieria cyanosphaera (SEQ ID NO: 2), Chroogloeocystis siderophila (SEQ ID NO: 4), Flavobacterium johnsoniae (SEQ ID NO: 6), and Rhodotorula glutinis (SEQ ID NO: 8) were synthesized as the genes of SEQ ID NOS: 1, 3, 5, and 7, respectively. These synthetic genes were cloned into a pCK110900 vector system (See e.g., U.S. Pat. No. 7,629,157 and US Pat. Appln. Publn. Nos. 2016/0244787, and 2006/0195947, all of which are incorporated by reference), and subsequently expressed in an E. coli strain derived from W3110. In some embodiments, expression vectors lacking antimicrobial resistance markers find use.
(§2) E. coli cultures transformed with plasmids containing TAL variants were plated onto LBagar plates with 1% glucose and in some instances, 30 μg/mL chloramphenicol, and grown overnight at 37° C. A single colony from each culture was transferred to 5 mL of Luria Broth (LB) with 1% glucose and 30 μg/mL chloramphenicol, where appropriate. The cultures were grown for 18 h at 30° C., 250 rpm, and subcultured approximately 1:50 into 250 ml of TB with 30 μg/mL of chloramphenicol. The cultures were grown for approximately 3-4 h at 30° C., 250 rpm, to an OD600 of 0.6-0.8, and induced with 1 mM of IPTG. The cultures were grown for 20 h at 30° C., 250 rpm. Cells were harvested by centrifugation (7000 rpm×10 min, 4° C.), and the supernatants were discarded. The pellets were resuspended in 30 mL of 20 mM sodium phosphate, pH 8.0, with 150 mM NaCl in some instances, and lysed using a single pass through a microfluidizer (Microfluidics), at 110 psi. The lysates were pelleted (10,000× rpm, 30 min, 4° C.), and the supernatants were heated for 1-2 hours at 60-65° C. in a water bath before being pelleted again (10,000× rpm, 1 h, 4° C.). The resulting supernatants were then frozen and lyophilized to generate powders containing the expressed enzymes.
(§3) SFP Characterization Assay for Activity on Tyrosine and Phenylalanine
(§4) To evaluate if the mutations in the TAL variants had altered kinetics, the Michaelis constant (Km) and maximum velocity (Vmax) were determined for each variant. To assay, 20 μl of diluted TAL variants at 1 g/L and 180 μL of 2-fold serially diluted tyrosine (0-2.48 mM tyrosine in 200 mM sodium phosphate, pH 7.0), were added to the wells of a 96-well UV-STAR® plate (Greiner Bio-One). The reactions were mixed briefly, and the activity was determined by tracking the absorbance at 290 nm over time (every 14-37s over 5 min) using a SPECTRAMAX® Plus 384 or a SPECTRAMAX® 190 (Molecular Devices) absorbance microplate reader. The Vmax and Km for each tested TAL variant was determined by fitting the data to a Michaelis-Menten equation using non-linear regression.

[2] = molecular target: T2, Stanieria cyanosphaera tyrosine ammonia lyase (TAL), wild type, SEQ ID NO: 2 (Stanieria cyanosphaera, UniProt K9XQ92); assay: as above; type: biochemical; settings: 0-2.48 mM tyrosine, 200 mM sodium phosphate, pH 7.0, A290
T2 sequence (K9XQ92 1-562): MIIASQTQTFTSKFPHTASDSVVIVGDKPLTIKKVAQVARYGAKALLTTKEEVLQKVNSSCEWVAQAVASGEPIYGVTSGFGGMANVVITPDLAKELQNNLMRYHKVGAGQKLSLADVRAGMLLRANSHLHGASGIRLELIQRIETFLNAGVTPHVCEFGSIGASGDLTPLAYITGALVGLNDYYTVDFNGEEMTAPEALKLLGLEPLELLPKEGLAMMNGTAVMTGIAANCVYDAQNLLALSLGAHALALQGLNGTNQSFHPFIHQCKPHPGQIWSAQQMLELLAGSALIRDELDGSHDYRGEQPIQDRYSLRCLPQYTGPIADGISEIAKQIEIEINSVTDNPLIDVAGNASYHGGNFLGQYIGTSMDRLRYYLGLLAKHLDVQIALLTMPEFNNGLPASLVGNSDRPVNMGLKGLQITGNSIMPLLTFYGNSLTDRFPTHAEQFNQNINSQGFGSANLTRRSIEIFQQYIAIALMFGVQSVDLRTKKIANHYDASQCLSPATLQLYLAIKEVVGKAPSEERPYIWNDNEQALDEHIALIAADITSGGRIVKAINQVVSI
Source text: as §1, §2, §3, §4

Q: Which results are given for `N[C@@H](Cc1ccc(O)cc1)C(=O)O` [Tyr, L-tyrosine]?
A: Km ([1]; read-out: Tyr Km): < 50 µM; Tyr Vmax ([1]; diluted TAL at 1 g/L): + (“+” = 0.5-1); Km ([2]; read-out: Tyr Km): 50 to 150 µM; Tyr Vmax ([2]; diluted TAL at 1 g/L): +++ (“+++” > 5)
